From paper PMC7822874, “Chemoprotective antimalarials identified through quantitative high-throughput screening of Plasmodium blood and liver stage parasites” (Scientific Reports, 2021)
Where “and” joins values, the source holds several entries; their conditions need not be identical. Equal values may be shown once. Read-outs that look alike come from different tables or passages of the source.

Key:
[1] = tested on: Plasmodium falciparum Dd2 asexual blood stage parasites; test: microbe, parasite or virus in culture; design: species or system Plasmodium falciparum Dd2 in human erythrocytes; single determination (one 11-point concentration-response curve); details: Plasmodium falciparum, DD2, Erythrocyte, 72 h; read-out: AC50
HepG2 = details: human, hepg2 cells, 48 h
in vitro [2] = details: human, hepg2 cells
HepG2-A16-CD81EGFP cells = details: for HepG2 1uM growth rep1 / HepG2 1uM growth rep2: HepG2, 1 µM compound treatment (10 mM stocks); for HepG2 1uM growth rep1 / HepG2 3uM growth rep1: replicate 1, normalized; for HepG2 1uM growth rep2 / HepG2 3uM growth rep2: replicate 2, normalized; for HepG2 3uM growth rep1 / HepG2 3uM growth rep2: HepG2, 3 µM compound treatment (10 mM stocks)
[3] = tested on: P. berghei-ANKA-GFP-LucCON liver stage parasites in HepG2-A16-CD81EGFP cells; test: P. berghei liver stage Pb-Luc assay, Method 1 (UCSD, 1536-well); format: cell-based, Plasmodium berghei; details: Plasmodium berghei, 48 h
in vitro [4] = details: human
[5] = P. berghei liver stage, 1 µM compound treatment (10 mM stocks), replicate 1, normalized, average of 2 wells on a 1536 well plate, read-out: PbLuc 1uM growth rep1
[6] = P. berghei liver stage, 1 µM compound treatment (10 mM stocks), replicate 2, normalized, average of 2 wells on a 1536 well plate, read-out: PbLuc 1uM growth rep2
[7] = P. berghei liver stage, 3 µM compound treatment (10 mM stocks), replicate 1, normalized, average of 2 wells on a 1536 well plate, read-out: PbLuc 3uM growth rep1
[8] = P. berghei liver stage, 3 µM compound treatment (10 mM stocks), replicate 2, normalized, average of 2 wells on a 1536 well plate, read-out: PbLuc 3uM growth rep2
[9] = nominal 1 uM (10 mM stock), […] for 15 mM, 1.2 uM for 12 mM, 2 uM for 20 mM stock, average of 2 wells, repeat 2
[10] = nominal 3 uM (10 mM stock), 4.5 uM for 15 mM, 3.6 uM for 12 mM, 6 uM for 20 mM stock, average of 2 wells, repeat 2
[11] = nominal 1 uM (10 mM stock), […] for 15 mM, 1.2 uM for 12 mM, 2 uM for 20 mM stock, average of 2 wells, 1536-well plate, repeat 1, read-out: Pb-Luc signal, 1 uM, repeat 1
[12] = nominal 1 uM (10 mM stock), […] for 15 mM, 1.2 uM for 12 mM, 2 uM for 20 mM stock, average of 2 wells, 1536-well plate, repeat 2, read-out: Pb-Luc signal, 1 uM, repeat 2
[13] = nominal 1 uM (10 mM stock), […] for 15 mM, 1.2 uM for 12 mM, 2 uM for 20 mM stock, average of 2 wells, 1536-well plate, repeat 3, read-out: Pb-Luc signal, 1 uM, repeat 3
[14] = nominal 3 uM (10 mM stock), 4.5 uM for 15 mM, 3.6 uM for 12 mM, 6 uM for 20 mM stock, average of 2 wells, 1536-well plate, repeat 1, read-out: Pb-Luc signal, 3 uM, repeat 1
[15] = nominal 3 uM (10 mM stock), 4.5 uM for 15 mM, 3.6 uM for 12 mM, 6 uM for 20 mM stock, average of 2 wells, 1536-well plate, repeat 2, read-out: Pb-Luc signal, 3 uM, repeat 2
[16] = nominal 3 uM (10 mM stock), 4.5 uM for 15 mM, 3.6 uM for 12 mM, 6 uM for 20 mM stock, average of 2 wells, 1536-well plate, repeat 3, read-out: Pb-Luc signal, 3 uM, repeat 3
[17] = HepG2-A16-CD81EGFP cells, uninfected

| Structure (SMILES) | AC50 [1] | Log AC50 (M) (HepG2) | CC50 at 48 h (in vitro [2]) | HepG2 1uM growth rep1 (HepG2-A16-CD81EGFP cells; average of 2 wells) | HepG2 1uM growth rep2 (HepG2-A16-CD81EGFP cells; average of 2 wells) | HepG2 3uM growth rep1 (HepG2-A16-CD81EGFP cells; average of 2 wells) | HepG2 3uM growth rep2 (HepG2-A16-CD81EGFP cells; average of 2 wells) | activity at 1 µM [3, 5] | activity at 1 µM [3, 6] | activity at 3 µM [3, 7] | activity at 3 µM [3, 8] | HepG2 viability signal, 1 uM, repeat 2 (HepG2-A16-CD81EGFP cells; [9]) | activity at 1 µM [3, 11] | activity at 1 µM [3, 12] | activity at 1 µM [3, 13] | activity at 3 µM [3, 14] | activity at 3 µM [3, 15] | activity at 3 µM [3, 16] | viability at 48 h, 1 µM (in vitro [4]; [17]) | viability at 48 h, 3 µM (in vitro [4]; [17]) | other results |
| --- | --- | --- | --- | --- | --- | --- | --- | --- | --- | --- | --- | --- | --- | --- | --- | --- | --- | --- | --- | --- | --- |
| Cc1cccc(-c2cc3nc(C)c(C)c(NCCCn4ccnc4)n3n2)c1 [MLS000529525-01] | 5.31 µM | -4.3143 M | 48.5 µM | 101% | 92% | 82% | 93% | 138% | 123% | 94% | 144% |  |  |  |  |  |  |  |  |  |  |
| COc1ccc(CN2CCCn3nc(C)c(-c4ccccc4Oc4ccccc4)c32)cc1O [NCGC00420291-01] | 9.44 µM | -4.3643 M | 43.2 µM |  |  |  |  |  |  |  |  | 99.76% | 77.1% | 79.5% | 133% | 83.6% | 59.5% | 87.2% | 101% | 105% | HepG2 viability signal, 3 uM, repeat 2 (HepG2-A16-CD81EGFP cells; [10]): 103.00% |
| CCCCCn1c(=N)n(CC(O)COc2cccc(C)c2)c2ccccc21 (stereo not drawn) [NCGC00101833-01] | 2.11 µM | -4.3643 M | 43.2 µM |  |  |  |  |  |  |  |  | 100.99% | 93.7% | 90.1% | 79.6% | 67.5% | 71% | 96.1% | 98.8% | 94.8% | HepG2 viability signal, 3 uM, repeat 2 (HepG2-A16-CD81EGFP cells; [10]): 100.64% |
| COc1ccccc1CNCC(O)Cn1c2ccccc2c2ccccc21 (stereo not drawn) [MLS000391556-01] |  | -4.4643 M | 34.3 µM | 97% | 92% | 92% | 93% | 115% | 98% | 107% | 96% |  |  |  |  |  |  |  |  |  |  |
| CC1(C)Cc2ccccc2C2=NNC(=O)C2=N1 [MLS000709658-01] | 3.35 µM | -4.4643 M | 34.3 µM | 98% | 96% | 90% | 99% | 117% | 83% | 68% | 64% |  |  |  |  |  |  |  |  |  |  |
| N=c1n(CCN2CCCCC2)c2ccccc2n1CC(O)COc1ccc(Cl)cc1Cl (stereo not drawn) [NCGC00100256-01] | 4.22 µM | -4.5143 M | 30.6 µM |  |  |  |  |  |  |  |  | 103.32% | 94.7% | 93.8% | 119% | 65.4% | 71% | 72.8% | 103% | 102% | HepG2 viability signal, 3 uM, repeat 2 (HepG2-A16-CD81EGFP cells; [10]): 101.25% |
| CN1CCN(c2ccc3ncc(Nc4ccccc4-c4ccccc4)n3n2)CC1 [NCGC00412547-01] | 0.863 µM | -4.3528 M | 44.4 µM |  |  |  |  |  |  |  |  | 97.22% | 101% | 104% | 100% | 50.6% | 88.8% | 92.9% | 96% | 97.1% | HepG2 viability signal, 3 uM, repeat 2 (HepG2-A16-CD81EGFP cells; [10]): 96.99% |
| CCOc1cccc(CNCCc2c(C)[nH]c3ccc(OC(F)(F)F)cc23)c1O.O=C(O)C(=O)O [MLS001198351-01] | 2.37 µM | -4.4643 M | 34.3 µM | 97% | 92% | 70% | 71% | 46% | 47% | 9% | 16% |  |  |  |  |  |  |  |  |  |  |
| NS(=O)(=O)c1ccc(N/N=C/c2cn(-c3ccccc3)nc2-c2cccs2)cc1 [MLS000393371-01] | 0.335 µM | -4.6643 M | 21.7 µM | 92% | 91% | 94% | 94% | 80% | 57% | 26% | 21% |  |  |  |  |  |  |  |  |  |  |
| Br.CCOC(=O)c1c(CSC(=N)N)n(-c2ccc(Br)cc2)c2cc(Br)c(OC(C)=O)cc12 [MLS000595146-01] |  | -4.3143 M | 48.5 µM |  |  |  |  |  |  |  |  |  |  |  |  |  |  |  | 105% | 104% | HepG2 viability, % of control (HepG2-A16-CD81EGFP cells): 100% and 96% |
| C/C(=N\Nc1ncnc2sc(C)c(C)c12)c1ccccn1 [MLS001176565-01] | 1.33 µM | -6.3143 M | 0.485 µM | 55% | 50% | 36% | 44% | 11% | 8% | 6% | 5% |  |  |  |  |  |  |  |  |  |  |
| O=C(Nc1ccccc1)OC[C@H]1C[C@@H]2CCN1C[C@@H]2c1cc(C2CCCC2)nc(-c2ccncc2)n1 [NCGC00421344-01] | 1.68 µM | -4.4643 M | 34.3 µM |  |  |  |  |  |  |  |  |  | 68.5% | 91.8% | 72.8% | 27.1% | 71.6% | 77.7% |  |  | HepG2 viability signal, 1 uM, repeat 2 (HepG2-A16-CD81EGFP cells; human, 48 h, 1 µM): 103.60%; HepG2 viability signal, 3 uM, repeat 2 (HepG2-A16-CD81EGFP cells; human, 48 h, 3 µM): 105.28%; viability at 48 h, 1 µM (in vitro [4]): 101%; viability at 48 h, 3 µM (in vitro [4]): 105% |
| N#Cc1ccc(NC(=O)Nc2ccc(Cl)cc2)cc1 [MLS000104525-01] | 5.31 µM | -4.4643 M | 34.3 µM | 95% | 87% | 72% | 84% | 86% | 61% | 6.45% | 7% |  |  |  |  |  |  |  |  |  |  |
| CN(C)CCCNc1cc(N2CCN(C3CCCCC3)CC2)c2noc3c2c1C(=O)c1ccccc1-3 [NCGC00111069-01] | 1.33 µM | -4.4143 M | 38.5 µM |  |  |  |  |  |  |  |  | 102.79% | 66% | 110% | 109% | 57.2% | 71.6% | 75.6% | 96.3% | 93.8% | HepG2 viability signal, 3 uM, repeat 2 (HepG2-A16-CD81EGFP cells; [10]): 99.71% |
